Earlier results on seven molecules are cited in patent US10570425B2, “Engineered cyanobacterium and its application for producing acetate” (National Tsing Hua University, priority 2017, dated 2020).

In data set [1] the target is 3-hydroxypropionaldehyde dehydrogenase (AldH) (Escherichia coli, UniProt P23883). The note with it: substrate of AldH.
The target in data set [2] is acetaldehyde dehydrogenase B (AldB) (Escherichia coli, UniProt P37685). The settings on record: substrate of aldB.
Another data set concerns padA. The settings on record: substrate of padA as titled, Table 5.
Data set [3] has as its system phenylacetaldehyde dehydrogenase (PadA). The settings on record: substrate of padA, Table 4.
The test system of data set [4] is phosphate acetyltransferases (Pta and EutD). The settings on record: Acetyl-CoA forming reaction; for kcat/KmAc-P: substrate Ac-P; for kcat/KmCoA: substrate CoA.

Chain of 3-hydroxypropionaldehyde dehydrogenase (AldH) (P23883 whole entry): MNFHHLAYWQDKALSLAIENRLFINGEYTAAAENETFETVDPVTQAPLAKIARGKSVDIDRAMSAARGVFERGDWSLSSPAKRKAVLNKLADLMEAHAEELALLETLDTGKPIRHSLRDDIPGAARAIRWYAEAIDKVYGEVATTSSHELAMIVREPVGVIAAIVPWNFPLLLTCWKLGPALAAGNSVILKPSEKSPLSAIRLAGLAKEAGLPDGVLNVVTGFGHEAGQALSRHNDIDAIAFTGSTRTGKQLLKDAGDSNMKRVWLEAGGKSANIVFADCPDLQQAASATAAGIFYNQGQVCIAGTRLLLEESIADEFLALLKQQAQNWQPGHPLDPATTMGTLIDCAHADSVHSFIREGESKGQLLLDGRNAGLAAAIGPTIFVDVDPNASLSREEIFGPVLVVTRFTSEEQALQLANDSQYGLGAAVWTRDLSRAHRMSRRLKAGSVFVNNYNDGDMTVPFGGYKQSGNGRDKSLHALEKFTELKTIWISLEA
Chain of acetaldehyde dehydrogenase B (AldB) (P37685 whole entry): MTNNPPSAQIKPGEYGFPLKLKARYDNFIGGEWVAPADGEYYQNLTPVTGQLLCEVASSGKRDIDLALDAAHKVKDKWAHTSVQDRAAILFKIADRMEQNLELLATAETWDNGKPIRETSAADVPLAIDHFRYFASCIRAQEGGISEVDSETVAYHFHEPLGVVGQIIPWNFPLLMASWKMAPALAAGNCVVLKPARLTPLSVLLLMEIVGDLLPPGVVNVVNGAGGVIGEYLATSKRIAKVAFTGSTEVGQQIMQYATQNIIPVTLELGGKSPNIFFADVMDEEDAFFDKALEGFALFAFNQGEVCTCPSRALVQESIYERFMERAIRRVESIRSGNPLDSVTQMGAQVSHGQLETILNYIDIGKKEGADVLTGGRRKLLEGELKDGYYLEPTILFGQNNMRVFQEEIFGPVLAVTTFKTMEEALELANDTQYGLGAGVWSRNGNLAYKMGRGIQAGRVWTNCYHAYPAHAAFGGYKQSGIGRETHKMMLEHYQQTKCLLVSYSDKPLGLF

For the molecule `O=CCCO` [3-Hydroxypropionaldehyde], in data set [1], the Km (commonly the concentration of substrate that gives half-maximal velocity) is 490 µM.
`CC=O` [Acetaldehyde]: the Km in data set [2] was 2.5 µM; with padA, 15200 µM; in data set [1], 1000 µM; in data set [3] it was 2150 µM.
Take `O=Cc1ccccc1` [Benzaldehyde]: the Km in the data set with padA was 150 µM; in data set [3], 8 µM.
`O=CCCl` [Chloroacetaldehyde]: the Km in data set [2] is 3.6 µM.
Consider `CCC=O` [Propionaldehyde], for which the Michaelis-Menten constant (Km) in data set [2] is 5.8 µM; with padA, 240 µM; in data set [1], 1210 µM; in data set [3], 11.6 µM.
With “Ec-eutD: phosphate acetyltransferase EutD from Escherichia coli”, in data set [4], the kcat/KmAc-P is 1.3 sec^−1μM^−1 and the kcat/KmCoA was 12.6 sec^−1μM^−1.

B1: Ec-pta: phosphate acetyltransferase Pta from Escherichia coli (protein, UniProt P0A9M8 2-714, looked up)
Phosphate acetyltransferase: SRIIMLIPTGTSVGLTSVSLGVIRAMERKGVRLSVFKPIAQPRTGGDAPDQTTTIVRANSSTTTAAEPLKMSYVEGLLSSNQKDVLMEEIVANYHANTKDAEVVLVEGLVPTRKHQFAQSLNYEIAKTLNAEIVFVMSQGTDTPEQLKERIELTRNSFGGAKNTNITGVIVNKLNAPVDEQGRTRPDLSEIFDDSSKAKVNNVDPAKLQESSPLPVLGAVPWSFDLIATRAIDMARHLNATIINEGDINTRRVKSVTFCARSIPHMLEHFRAGSLLVTSADRPDVLVAACLAAMNGVEIGALLLTGGYEMDARISKLCERAFATGLPVFMVNTNTWQTSLSLQSFNLEVPVDDHERIEKVQEYVANYINADWIESLTATSERSRRLSPPAFRYQLTELARKAGKRIVLPEGDEPRTVKAAAICAERGIATCVLLGNPAEINRVAASQGVELGAGIEIVDPEVVRESYVGRLVELRKNKGMTETVAREQLEDNVVLGTLMLEQDEVDGLVSGAVHTTANTIRPPLQLIKTAPGSSLVSSVFFMLLPEQVYVYGDCAINPDPTAEQLAEIAIQSADSAAAFGIEPRVAMLSYSTGTSGAGSDVEKVREATRLAQEKRPDLMIDGPLQYDAAVMADVAKSKAPNSPVAGRATVFIFPDLNTGNTTYKAVQRSADLISIGPMLQGMRKPVNDLSRGALVDDIVYTIALTAIQSAQQQ
As to B1, in data set [4], the kcat/KmAc-P is reported as 0.25 sec^−1μM^−1 and the kcat/KmCoA was 3.4 sec^−1μM^−1.
